Structures can show the parent of a compound that is named as a salt.
Assays:
[1] = molecular target: T1, recombinant full length human estrogen receptor alpha (ERα) (Homo sapiens, UniProt P03372); test: [3H]-ketamine displacement assay; assay type: binding
[2] = molecular target: T1, recombinant full length human estrogen receptor alpha (ERα); conditions: 1 nM [3H]-estradiol; competitor 4 nM - 40 mM
[3] = molecular target: T1, recombinant full length human estrogen receptor alpha (ERα); test: [3H]-ketamine saturation radioligand binding assay; conditions: read-out: KD of [3H]-ketamine binding to ERα (saturation binding); nine concentrations of [3H]-ketamine, 4 nM to 400 nM; non-linear regression
[4] = brains of female than in male mice; cited from earlier work

T1 sequence (P03372 whole entry): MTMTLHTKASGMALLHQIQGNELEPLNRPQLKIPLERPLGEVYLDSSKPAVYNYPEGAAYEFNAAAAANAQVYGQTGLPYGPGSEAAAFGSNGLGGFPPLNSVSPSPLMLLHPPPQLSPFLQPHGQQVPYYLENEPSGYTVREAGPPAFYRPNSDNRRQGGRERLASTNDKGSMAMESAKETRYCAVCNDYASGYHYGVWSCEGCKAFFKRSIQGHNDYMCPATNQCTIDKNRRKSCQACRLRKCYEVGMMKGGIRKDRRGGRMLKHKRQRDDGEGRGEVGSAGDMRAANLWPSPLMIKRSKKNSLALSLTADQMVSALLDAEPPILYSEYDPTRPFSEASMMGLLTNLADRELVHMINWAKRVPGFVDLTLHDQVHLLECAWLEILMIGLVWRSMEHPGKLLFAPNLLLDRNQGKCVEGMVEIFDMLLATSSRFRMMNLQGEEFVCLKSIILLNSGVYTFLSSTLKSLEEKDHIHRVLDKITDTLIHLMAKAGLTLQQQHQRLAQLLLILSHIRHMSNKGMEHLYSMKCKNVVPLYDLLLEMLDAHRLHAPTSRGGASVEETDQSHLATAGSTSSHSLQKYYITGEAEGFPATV

For `CNC1(c2ccccc2Cl)CCCCC1=O` (stereo not drawn) [ketamine, Ketamine hydrochloride], the IC50 [1] was 2310 ± 100 nM and the “displacement of [3H]-estradiol binding to ERα (in words)” value [2] was “failed to displace”.
For `CNC1(c2ccccc2Cl)CCCCC1=O` (racemic) [[^3H]-ketamine, (±)-Ketamine [N-methyl-^3H] hydrochloride], the Kd [3] was 344 nM.
In the case of `N[C@@]1(c2ccccc2Cl)CCC[C@@H](O)C1=O` [(2S,6S;2R,6R)-HNK, (2S,6S;2R,6R)-hydroxynorketamine], the “brain concentrations, female versus male mice” value [4] is given as “three fold higher”.
Compound `N[C@]1(c2ccccc2Cl)CCC[C@H](O)C1=O` [(2S,6S)-HNK] has an IC50 [1] of 3530 ± 200 nM.
Compound `N[C@@]1(c2ccccc2Cl)CCC[C@@H](O)C1=O` [(2R,6R)-HNK] has an IC50 [1] of 3400 ± 200 nM.

From article PMC5960634 (Biochemical pharmacology, 2018)
